Experimental data published in patent US7026161B2, “Lactobacillus sp. strain and use thereof” (Sesang Life Science, Inc., priority 2001, dated 2006).

Test system: Lactobacillus paracasei viro-01
Experiment: Antibiotic sensitivity test (disc)
Format: cell-based
Conditions: for growth-inhibition zone: Mueller Hinton agar, 37° C., 16 hours; for resistance of Lactobacillus paracasei viro-01 to the antibiotic: judged by the zone limits printed per antibiotic (resistant/moderate/sensitive)
Procedure: Antibiotic sensitivity of the Lactobacillus paracasei viro-01 of the present invention were tested. The antibiotic resistance test was carried out by Scientec Lab Center Co., Ltd.(Daejeon city, Daedeok, Korea) approved by the KFDA.
Antibiotics used were Cephalexin, Flumequine, Furazolidone, Gentamycin, Spectinomycin, Tetracycline, Tiamulin, Neomycin, Chloramphenicol and Kanamycin, and test procedures were as described below.
5 to 6 colonies of cultured Lactobacillus paracasei viro-01 were selected, inoculated into bacterial growth medium composed of peptone 10.0 g/L, beef extract 10.0 g/L, yeast extract 5.0 g/L, glucose 20.0 g/L, Tween 80 1.0 mL/L, K2HPO4 2.0 g/L, sodium acetate 5.0 g/L, triammonium citrate 2.0 g/L, MgSO4.7H2O 0.2 g/L and MnSO4.4H2O 0.2 g/L and incubated at 37° C. Turbidity of said culture was adjusted to MacFarland No. 0.5, and used as test bacteria solution. Said test bacteria solution was smeared on Mueller Hinton agar plates and antibiotic sensitivity test disc was added thereto and incubated at 37° C. for 16 hours.
Antibiotic sensitivity was determined by measuring the area of growth inhibition surrounding each test disc.

| Compound | growth-inhibition zone (content 10 μg/disc) | resistance of Lactobacillus paracasei viro-01 to the antibiotic (content 10 μg/disc) | also measured |
| --- | --- | --- | --- |
| O=C(N[C@H](CO)[C@H](O)c1ccc([N+](=O)[O-])cc1)C(Cl)Cl [chloramphenicol, Chloramphenicol] | – | – | growth-inhibition zone (content 30 μg/disc): 30 mm; resistance of Lactobacillus paracasei viro-01 to the antibiotic (content 30 μg/disc): none; resistance of Lactobacillus paracasei viro-01 to the antibiotic (content 30 μg/disc, listed as Chloramphenicol): no resistance |
| CC1CCc2cc(F)cc3c(=O)c(C(=O)O)cn1c23 (centres unmarked) [flumequine, Flumequine] | 0 mm | strong | resistance of Lactobacillus paracasei viro-01 to the antibiotic (content 10 μg/disc, listed as Flumequine): resistance |
| O=C1OCCN1/N=C/c1ccc([N+](=O)[O-])o1 [furazolidone, Furazolidone] | 0 mm | strong | resistance of Lactobacillus paracasei viro-01 to the antibiotic (content 10 μg/disc, listed as Furazolidone): resistance |
| NC[C@H]1O[C@H](O[C@H]2[C@H](O)[C@@H](O[C@H]3O[C@H](CO)[C@@H](O)[C@H](N)[C@H]3O)[C@H](N)C[C@@H]2N)[C@H](O)[C@@H](O)[C@@H]1O [kanamycin, Kanamycin] | 9 mm | – | – |
| CC1=C(C(=O)O)N2C(=O)[C@@H](NC(=O)[C@H](N)c3ccccc3)[C@H]2SC1 [sephalexin, Cephalexin] | 0 mm | strong | resistance of Lactobacillus paracasei viro-01 to the antibiotic (content 10 μg/disc, listed as Cephalexin): resistance |
| CN[C@@H]1[C@H](O)[C@H](NC)[C@H]2O[C@@]3(O)C(=O)C[C@@H](C)O[C@H]3O[C@@H]2[C@H]1O [spectinomycin, Spectinomycin] | 0 mm | strong | resistance of Lactobacillus paracasei viro-01 to the antibiotic (content 10 μg/disc, listed as Spectinomycin): resistance |
| CN(C)[C@@H]1C(O)=C(C(N)=O)C(=O)[C@@]2(O)C(O)=C3C(=O)c4c(O)cccc4[C@@](C)(O)[C@H]3C[C@@H]12 [tetracycline, Tetracycline] | – | – | growth-inhibition zone (content 30 μg/disc): 30 mm |
| C=C[C@]1(C)C[C@@H](OC(=O)CSCCN(CC)CC)[C@]2(C)[C@H](C)CC[C@]3(CCC(=O)[C@H]32)[C@@H](C)[C@@H]1O [tiamulin, Tiamulin] | 28 mm | none | resistance of Lactobacillus paracasei viro-01 to the antibiotic (content 10 μg/disc, listed as Tiamulin): no resistance |
| Gentamycin | 13 mm | moderate | resistance of Lactobacillus paracasei viro-01 to the antibiotic (content 10 μg/disc, listed as Gentamycin): moderate resistance |
| Neomycin | 13 mm | moderate | resistance of Lactobacillus paracasei viro-01 to the antibiotic (content 10 μg/disc, listed as Neomycin): moderate resistance |
